pIC50, pKi: −log10 of the molar value.
Legend:
[1] = DRUGMATRIX: ATPase, Na+/K+ enzyme inhibition (substrate: ATP); format: tissue-based, Sus scrofa, Heart; conditions: Not Active = under 50% inhibition at 10 µM
[2] = biological target: T1, Muscarinic acetylcholine receptor M2 (Homo sapiens, UniProt P08172); format: cell membranes, CHO-K1, Membrane; note: in other assays of this panel Not Active means under 50% inhibition at 10 µM
T1 sequence (P08172 whole entry): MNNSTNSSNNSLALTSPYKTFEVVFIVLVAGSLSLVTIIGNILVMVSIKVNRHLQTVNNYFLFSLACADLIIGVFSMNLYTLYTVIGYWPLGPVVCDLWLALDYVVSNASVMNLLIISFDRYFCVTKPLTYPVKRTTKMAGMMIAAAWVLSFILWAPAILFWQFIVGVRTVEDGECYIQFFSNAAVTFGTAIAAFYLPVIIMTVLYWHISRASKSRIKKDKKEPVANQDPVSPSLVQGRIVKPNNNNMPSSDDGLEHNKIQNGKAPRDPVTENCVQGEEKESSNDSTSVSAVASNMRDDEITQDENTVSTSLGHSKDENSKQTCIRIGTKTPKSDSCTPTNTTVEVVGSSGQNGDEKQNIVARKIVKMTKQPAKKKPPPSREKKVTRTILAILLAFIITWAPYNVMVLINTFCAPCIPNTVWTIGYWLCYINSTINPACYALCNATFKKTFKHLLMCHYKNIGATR

[3] = DRUGMATRIX: Atrial Natriuretic Factor (ANF) radioligand binding (ligand: [125I] ANF (rat)); format: cell membranes, Cavia porcellus, Dunkin-Hartley, Adrenal gland, Membrane; conditions: Not Active = under 50% inhibition at 10 µM
[4] = biological target: T2, C-X-C chemokine receptor type 1 (Homo sapiens, UniProt P25024); note: in other assays of this panel Not Active means under 50% inhibition at 10 µM
T2 sequence (P25024 whole entry): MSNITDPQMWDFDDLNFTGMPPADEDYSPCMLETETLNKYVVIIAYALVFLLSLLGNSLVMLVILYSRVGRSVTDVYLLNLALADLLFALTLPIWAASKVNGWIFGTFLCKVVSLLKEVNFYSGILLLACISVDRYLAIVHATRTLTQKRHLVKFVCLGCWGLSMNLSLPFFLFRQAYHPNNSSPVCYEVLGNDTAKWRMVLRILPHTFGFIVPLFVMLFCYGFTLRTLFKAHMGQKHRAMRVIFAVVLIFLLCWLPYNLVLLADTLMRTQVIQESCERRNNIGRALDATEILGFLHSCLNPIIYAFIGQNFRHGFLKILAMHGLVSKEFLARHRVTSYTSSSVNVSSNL

Insulin receptor = Insulin receptor (Rattus norvegicus, UniProt P15127); format: cell membranes, Wistar, Liver, Membrane; note: in other assays of this panel Not Active means under 50% inhibition at 10 µM
Sequence of Insulin receptor (P15127 27-759 limits assumed): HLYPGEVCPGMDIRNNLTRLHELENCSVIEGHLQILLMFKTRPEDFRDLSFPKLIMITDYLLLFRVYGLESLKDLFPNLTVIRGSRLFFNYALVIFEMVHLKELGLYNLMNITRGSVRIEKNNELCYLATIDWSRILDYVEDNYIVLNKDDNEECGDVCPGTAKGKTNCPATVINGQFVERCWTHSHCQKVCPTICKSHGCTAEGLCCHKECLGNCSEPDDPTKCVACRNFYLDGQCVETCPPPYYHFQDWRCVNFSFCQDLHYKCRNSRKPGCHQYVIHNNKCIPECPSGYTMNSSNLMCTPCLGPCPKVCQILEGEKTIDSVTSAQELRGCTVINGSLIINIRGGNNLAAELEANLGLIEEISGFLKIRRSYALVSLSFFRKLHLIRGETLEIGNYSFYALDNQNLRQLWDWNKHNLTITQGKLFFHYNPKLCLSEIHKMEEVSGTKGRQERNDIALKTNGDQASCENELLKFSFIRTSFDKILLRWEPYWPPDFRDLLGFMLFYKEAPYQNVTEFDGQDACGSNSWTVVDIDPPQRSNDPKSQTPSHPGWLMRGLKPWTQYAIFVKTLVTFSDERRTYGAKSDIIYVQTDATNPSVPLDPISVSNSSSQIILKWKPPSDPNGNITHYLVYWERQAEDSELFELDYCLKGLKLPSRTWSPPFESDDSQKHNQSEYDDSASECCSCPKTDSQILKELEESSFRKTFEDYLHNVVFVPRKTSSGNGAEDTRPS
Sequence of Insulin receptor (P15127 764-1383 limits assumed): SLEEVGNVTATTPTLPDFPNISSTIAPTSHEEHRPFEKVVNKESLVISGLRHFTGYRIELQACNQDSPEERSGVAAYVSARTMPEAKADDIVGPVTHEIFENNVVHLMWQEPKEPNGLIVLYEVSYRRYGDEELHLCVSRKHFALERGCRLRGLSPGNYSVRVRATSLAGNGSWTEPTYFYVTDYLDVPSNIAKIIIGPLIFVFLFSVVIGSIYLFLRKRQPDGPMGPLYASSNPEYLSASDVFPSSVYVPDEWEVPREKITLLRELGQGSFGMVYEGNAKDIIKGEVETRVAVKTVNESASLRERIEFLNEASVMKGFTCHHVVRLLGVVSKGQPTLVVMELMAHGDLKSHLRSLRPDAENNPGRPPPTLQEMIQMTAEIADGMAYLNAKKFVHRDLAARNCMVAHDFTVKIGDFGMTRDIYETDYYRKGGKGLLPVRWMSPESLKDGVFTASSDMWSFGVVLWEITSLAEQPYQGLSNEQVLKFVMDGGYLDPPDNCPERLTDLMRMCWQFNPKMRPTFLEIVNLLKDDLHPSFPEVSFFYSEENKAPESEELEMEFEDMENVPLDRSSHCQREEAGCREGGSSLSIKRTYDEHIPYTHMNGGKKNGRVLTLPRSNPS

[5] = DRUGMATRIX: Serotonin (5-Hydroxytryptamine) 5-HT3 radioligand binding (ligand: [3H] GR-65630); format: cell membranes, Membrane; conditions: hek293; Not Active = under 50% inhibition at 10 µM
B2 bradykinin receptor = biological target: T3, B2 bradykinin receptor (Homo sapiens, UniProt P30411); format: cell membranes, Membrane; conditions: chem-1; note: in other assays of this panel Not Active means under 50% inhibition at 10 µM
T3 sequence (P30411 whole entry): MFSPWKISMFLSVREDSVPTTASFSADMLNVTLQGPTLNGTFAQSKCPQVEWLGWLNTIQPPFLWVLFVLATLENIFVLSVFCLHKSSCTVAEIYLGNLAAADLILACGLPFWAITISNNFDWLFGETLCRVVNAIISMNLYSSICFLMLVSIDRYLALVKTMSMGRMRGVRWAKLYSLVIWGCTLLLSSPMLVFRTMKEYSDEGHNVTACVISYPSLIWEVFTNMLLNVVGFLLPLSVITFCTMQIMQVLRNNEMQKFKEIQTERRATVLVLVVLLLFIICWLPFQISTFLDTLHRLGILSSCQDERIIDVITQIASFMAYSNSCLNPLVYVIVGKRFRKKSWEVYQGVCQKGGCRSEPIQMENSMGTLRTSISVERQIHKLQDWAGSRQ

Mu-type opioid receptor = Mu-type opioid receptor (Homo sapiens, UniProt P35372); assay: DRUGMATRIX: Opiate mu (OP3, MOP) radioligand binding (ligand: [3H] Diprenorphine); format: cell membranes, CHO-K1, Membrane; conditions: Not Active = under 50% inhibition at 10 µM; for IC50: cho-k1
Sequence of Mu-type opioid receptor (P35372 whole entry): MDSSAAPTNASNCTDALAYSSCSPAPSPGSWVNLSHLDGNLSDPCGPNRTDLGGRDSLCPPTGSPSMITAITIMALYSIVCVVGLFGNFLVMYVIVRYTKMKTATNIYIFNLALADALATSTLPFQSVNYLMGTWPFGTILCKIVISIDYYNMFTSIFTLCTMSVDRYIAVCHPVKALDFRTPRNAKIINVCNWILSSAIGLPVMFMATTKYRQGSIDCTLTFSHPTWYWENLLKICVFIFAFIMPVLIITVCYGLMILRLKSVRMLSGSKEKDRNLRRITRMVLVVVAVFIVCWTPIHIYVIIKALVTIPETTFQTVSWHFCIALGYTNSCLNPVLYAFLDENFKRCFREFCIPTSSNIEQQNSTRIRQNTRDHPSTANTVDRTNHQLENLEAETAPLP

| Compound | IC50 [1] | Ki [1] | IC50 ([2]; cho-k1) | IC50 [3] | Ki [3] | IC50 [4] | IC50 (Insulin receptor) | IC50 [5] | Ki [5] | IC50 (B2 bradykinin receptor) | IC50 (Mu-type opioid receptor) | pIC50 ([2]; read-out: IC50) | pKi ([2]; read-out: Ki) | Ki ([2]; cho-k1) | Ki [4] | Ki (Insulin receptor) | Ki (B2 bradykinin receptor) | pKi (Mu-type opioid receptor) | pIC50 (Mu-type opioid receptor; read-out: IC50) |
| --- | --- | --- | --- | --- | --- | --- | --- | --- | --- | --- | --- | --- | --- | --- | --- | --- | --- | --- | --- |
| N[C@@H](Cc1ccc(N(CCCl)CCCl)cc1)C(=O)O | Not Active | Not Active | Not Active | Not Active | Not Active | Not Active | Not Active | Not Active | Not Active | Not Active |  |  |  |  |  |  |  |  |  |
| CC(C)N1CCN(c2ccc(OCC3COC(Cn4cncn4)(c4ccc(Cl)cc4Cl)O3)cc2)CC1 (stereo not given) [TERCONAZOLE] | Not Active | Not Active |  |  |  | Not Active | Not Active | Not Active | Not Active | Not Active | Not Active | 4.89 | 5.34 |  |  |  |  |  |  |
| Cc1nc2n(c(=O)c1CCN1CCC(c3noc4cc(F)ccc34)CC1)CCCC2 [RISPERIDONE] |  |  | Not Active |  |  | Not Active | Not Active |  |  | Not Active | Not Active |  |  |  |  |  |  |  |  |
| N[C@@H]1[C@H]2CN(c3nc4c(cc3F)c(=O)c(C(=O)O)cn4-c3ccc(F)cc3F)C[C@@H]12 [TROVAFLOXACIN] | Not Active | Not Active | Not Active | Not Active | Not Active | Not Active | Not Active | Not Active | Not Active | Not Active | Not Active |  |  |  |  |  |  |  |  |
| O=c1ncn2nc(Sc3ccc(F)cc3F)ccc2c1-c1c(Cl)cccc1Cl [NEFLAMAPIMOD] | Not Active | Not Active | Not Active | Not Active | Not Active | Not Active | Not Active | Not Active | Not Active | Not Active | Not Active |  |  |  |  |  |  |  |  |
| CCCCc1oc2ccccc2c1C(=O)c1cc(I)c(OCCN(CC)CC)c(I)c1 [AMIODARONE] |  |  |  |  |  | Not Active | Not Active |  |  |  |  |  |  |  |  |  |  |  |  |
| CC[C@]1(O)C[C@H]2CN(CCc3c([nH]c4ccccc34)[C@@](C(=O)OC)(c3cc4c(cc3OC)N(C=O)[C@H]3[C@@](O)(C(=O)OC)[C@H](OC(C)=O)[C@]5(CC)C=CCN6CC[C@]43[C@@H]65)C2)C1 [VINCRISTINE] | Not Active | Not Active | Not Active | Not Active | Not Active | Not Active | Not Active | Not Active | Not Active | Not Active | Not Active |  |  |  |  |  |  |  |  |
| N[C@@H](Cc1cc(I)c(Oc2ccc(O)c(I)c2)c(I)c1)C(=O)O [LIOTHYRONINE] |  |  | Not Active |  |  | Not Active | Not Active |  |  | Not Active | Not Active |  |  |  |  |  |  |  |  |
| CN1CCN(CCCN2c3ccccc3Sc3ccc(Cl)cc32)CC1 [PROCHLORPERAZINE] |  |  |  |  |  | Not Active | Not Active |  |  | Not Active | Not Active |  |  |  |  |  |  |  |  |
| CC[C@@H](CO)NC(=O)[C@@H]1C=C2c3cccc4[nH]cc(c34)C[C@H]2N(C)C1 [METHYLERGONOVINE] | Not Active | Not Active | Not Active | Not Active | Not Active | Not Active | Not Active |  |  | Not Active |  |  |  |  |  |  |  |  |  |
| CC(C)(C)NC(=O)[C@@H]1C[C@@H]2CCCC[C@@H]2CN1C[C@@H](O)[C@H](Cc1ccccc1)NC(=O)[C@H](CC(N)=O)NC(=O)c1ccc2ccccc2n1 | Not Active | Not Active | Not Active | Not Active | Not Active | Not Active | Not Active | Not Active | Not Active | Not Active |  |  |  |  |  |  |  |  |  |
| SODIUM NITROPRUSSIDE | Not Active | Not Active | Not Active | Not Active | Not Active | Not Active | Not Active | Not Active | Not Active | Not Active |  |  |  | Not Active | Not Active | Not Active | Not Active |  |  |
| CC/C(=C(\c1ccccc1)c1ccc(OCCN(C)C)cc1)c1ccccc1 [TAMOXIFEN] |  |  |  |  |  | Not Active | Not Active |  |  |  |  |  |  |  |  |  |  | 5.15 | 4.75 |

— ChEMBL document CHEMBL1909046, “DrugMatrix in vitro pharmacology data”
